Results published in patent US20250049033A1, “PESTICIDALLY ACTIVE PYRIDAZINONE COMPOUNDS” (SYNGENTA CROP PROTECTION AG, priority 2021, published 2025).

Legend:
Format in all cases: in vivo
Euschistus heros = test: Activity against Euschistus heros (neotropical brown stink bug), soybean leaves, N2 nymphs; conditions: 120 h, application rate 200 ppm, 5 days after infestation, vs untreated, read-out: effect in at least one of the two categories (mortality or growth inhibition)
Procedure: Example B3: Activity Against Euschistus heros (Neotropical Brown Stink Bug)
Soybean leaves on agar in 24-well microtiter plates were sprayed with aqueous test solutions prepared from 10′000 ppm DMSO stock solutions. After drying the leaves were infested with N2 nymphs. The samples were assessed for mortality and growth inhibition in comparison to untreated samples 5 days after infestation.

[1] = system: Frankliniella occidentalis; test: Activity against Frankliniella occidentalis (western flower thrips), feeding/contact activity; conditions: foliar, 168 h, application rate 200 ppm, 7 days after infestation, sunflower leaf discs, mixed ages
Procedure: Example B4: Activity Against Frankliniella occidentalis (Western Flower Thrips). Feeding/Contact Activity
Sunflower leaf discs were placed on agar in 24-well microtiter plates and sprayed with aqueous test solutions prepared from […] stock solutions. After drying the leaf discs were infested with a Frankliniella population of mixed ages. The samples were assessed for mortality 7 days after infestation.

Chilo suppressalis = test: Activity against Chilo suppressalis (striped rice stemborer), artificial diet, L2 larvae; conditions: 144 h, application rate 200 ppm, 6 days after infestation, vs untreated, read-out: control in at least one of the three categories (mortality, anti-feedant effect, or growth inhibition)
Procedure: Example B1: Activity Against Chilo suppressalis (Striped Rice Stemborer)
24-well microtiter plates with artificial diet were treated with aqueous test solutions prepared from 10′000 ppm DMSO stock solutions by pipetting. After drying, the plates were infested with L2 larvae (6-8 per well). The samples were assessed for mortality, anti-feeding effect, and growth inhibition in comparison to untreated samples 6 days after infestation. Control of Chilo suppressalis by a test sample is given when at least one of the categories mortality, anti-feedant effect, and growth inhibition is higher than the untreated sample.

Diabrotica balteata = test: Activity against Diabrotica balteata (corn root worm), maize sprouts, L2 larvae; conditions: 96 h, application rate 200 ppm, 4 days after infestation, vs untreated, read-out: control in at least one of the two categories (mortality or growth inhibition)
Procedure: Example B2: Activity Against Diabrotica balteata (Corn Root Worm)
Maize sprouts placed onto an agar layer in 24-well microtiter plates were treated with aqueous test solutions prepared from 10′000 ppm DMSO stock solutions by spraying. After drying, the plates were infested with L2 larvae (6 to 10 per well). The samples were assessed for mortality and growth inhibition in comparison to untreated samples 4 days after infestation.

Myzus persicae [2] = test: Activity against Myzus persicae (green peach aphid), feeding/contact activity; conditions: foliar, 144 h, application rate 200 ppm, 6 days after infestation, sunflower leaf discs, mixed ages
Procedure: Example B5: Activity Against Myzus persicae (Green Peach Aphid). Feeding/Contact Activity
Sunflower leaf discs were placed onto agar in a 24-well microtiter plate and sprayed with aqueous test solutions prepared from 10′000 ppm DMSO stock solutions. After drying, the leaf discs were infested with an aphid population of mixed ages. The samples were assessed for mortality 6 days after infestation.

Myzus persicae [3] = test: Activity against Myzus persicae (green peach aphid), intrinsic activity; conditions: 120 h, test rate 12 ppm, 5 days after infestation, sucrose solution through Parafilm
Source text: Example B6: Activity Against Myzus persicae (Green Peach Aphid). Intrinsic Activity
Test compounds prepared from 10′000 ppm DMSO stock solutions were applied by pipette into 24-well microtiter plates and mixed with sucrose solution. The plates were closed with a stretched Parafilm. A plastic stencil with 24 holes was placed onto the plate and infested pea seedlings were placed directly on the Parafilm. The infested plate was closed with a gel blotting paper and another plastic stencil and then turned upside down. The samples were assessed for mortality 5 days after infestation.

Plutella xylostella = test: Activity against Plutella xylostella (diamond back moth), artificial diet, eggs; conditions: 192 h, application rate 200 ppm, 8 days after infestation, vs untreated, read-out: control in at least one of the two categories (mortality or growth inhibition)
Procedure: Example B7: Activity Against Plutella xylostella (Diamond Back Moth)
24-well microtiter plates with artificial diet were treated with aqueous test solutions prepared from 10′000 ppm DMSO stock solutions by pipetting. After drying, Plutella eggs were pipetted through a plastic stencil onto a gel blotting paper and the plate was closed with it. The samples were assessed for mortality and growth inhibition in comparison to untreated samples 8 days after infestation. The following compounds gave an effect of at least 80% control in at least one of the two categories (mortality or growth inhibition) at an application rate of 200 ppm: P1, P2, P3, P4, P6, P7, P8, P9, P10, P11, P12, P13, P14, P15, P16, P17, P18, P19, P20, P21, P22, P23, P24, P25, P26, P27.

Spodoptera littoralis = test: Activity against Spodoptera littoralis (Egyptian cotton leaf worm), cotton leaf discs, L1 larvae; conditions: foliar, 72 h, application rate 200 ppm, 3 days after infestation, vs untreated, read-out: control in at least one of the three categories (mortality, anti-feedant effect, or growth inhibition)
Procedure: Example B8: Activity Against Spodoptera littoralis (Egyptian Cotton Leaf Worm)
Cotton leaf discs were placed onto agar in 24-well microtiter plates and sprayed with aqueous test solutions prepared from 10′000 ppm DMSO stock solutions. After drying the leaf discs were infested with five L1 larvae. The samples were assessed for mortality, anti-feeding effect, and growth inhibition in comparison to untreated samples 3 days after infestation. Control of Spodoptera littoralis by a test sample is given when at least one of the categories mortality, anti-feedant effect, and growth inhibition is higher than the untreated sample.

Tetranychus urticae = test: Activity against Tetranychus urticae (two-spotted spider mite), feeding/contact activity; conditions: foliar, 192 h
Procedure: Example B9: Activity Against Tetranychus urticae (Two-Spotted Spider Mite). Feeding/Contact Activity
Bean leaf discs on agar in 24-well microtiter plates were sprayed with aqueous test solutions prepared from 10′000 ppm DMSO stock solutions. After drying the leaf discs were infested with a mite population of mixed ages. The samples were assessed for mortality on mixed population (mobile stages) 8 days after infestation.

C[C@H](Nc1nc(=O)[nH]c2c(Cl)cc(C(F)(F)F)cc12)c1ncnn1-c1ccc(=O)n(C)n1 [P5, 8-chloro-4-[[(1S)-1-[2-(1-methyl-6-oxo-pyridazin-3-yl)-1,2,4-triazol-3-yl]ethyl]amino]-6-(trifluoromethyl)-1H-quinazolin-2-one]
≥ 80%: percent effect (mortality or growth inhibition) at 200 ppm (Euschistus heros) | mortality at 200 ppm [1]

C[C@@H](c1ncnn1-c1ccc(=O)n(C)n1)N(C)c1ncnc2c(C(F)(F)F)cc(Cl)cc12 [P6, 6-[5-[(1S)-1-[[6-chloro-8-(trifluoro-methyl)quinazolin-4-yl]-methyl-amino]ethyl]-1,2,4-triazol-1-yl]-2-methyl-pyr-idazin-3-one]
≥ 80%: percent control (mortality, anti-feedant effect or growth inhibition) at 200 ppm (Chilo suppressalis) | percent control (mortality or growth inhibition) at 200 ppm (Diabrotica balteata) | percent effect (mortality or growth inhibition) at 200 ppm (Euschistus heros) | mortality at 200 ppm (Myzus persicae [2]) | mortality at 12 ppm (Myzus persicae [3]) | percent control (mortality or growth inhibition) at 200 ppm (Plutella xylostella) | percent control (mortality, anti-feedant effect or growth inhibition) at 200 ppm (Spodoptera littoralis) | mortality at 200 ppm (Tetranychus urticae)
